Among the data in US20120052130A1, “GPR 119 MODULATORS” (Pfizer Inc., priority 2009, published 2012) are EC50 values, retold here.

The test concerns the target T1, human GPR119 (Homo sapiens, UniProt Q8TDV5).
T1 sequence (Q8TDV5 1-335): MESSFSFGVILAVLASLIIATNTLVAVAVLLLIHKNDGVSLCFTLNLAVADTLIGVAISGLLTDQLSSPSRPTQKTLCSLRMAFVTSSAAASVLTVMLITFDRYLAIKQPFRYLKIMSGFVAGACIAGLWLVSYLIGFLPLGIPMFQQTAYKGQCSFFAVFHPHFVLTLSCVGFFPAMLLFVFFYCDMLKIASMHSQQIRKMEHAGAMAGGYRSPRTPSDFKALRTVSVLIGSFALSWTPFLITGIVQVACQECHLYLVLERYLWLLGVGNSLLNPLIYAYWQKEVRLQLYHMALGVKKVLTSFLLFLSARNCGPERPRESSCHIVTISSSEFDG
Briefly: β-lactamase reporter functional assay for GPR119 agonists (hGPR119 HEK293-CRE beta-lactamase cells). It is filed as cell-based. The arrangement: host or cells: hGPR119-HEK293-CRE-beta-lactamase cells. Conditions: hGPR119 HEK293-CRE beta-lactamase cells; each line is a separate determination; read-out: Human B-lactamase Functional EC50. On the procedure: The assay for GPR119 agonists utilizes a cell-based (hGPR119HEK293-CRE beta-lactamase) reporter construct where agonist activation of human GPR119 is coupled to beta-lactamase production via a cyclic AMP response element (CRE). GPR119 activity is then measured utilizing a FRET-enabled beta-lactamase substrate, CCF4-AM (Live Blazer FRET-B/G Loading kit, Invitrogen cat #K1027). […] Fluorescence was measured on an EnVision fluorimetric plate reader, excitation 405 nm, emission 460 nm/535 nm. EC50 determinations were made from agonist-response curves analyzed with a curve fitting program using a 4-parameter logistic dose-response equation.

SMILES strings stand for the structures.

For `Cc1c(O[C@@H]2[C@@H]3COC[C@H]2CN(C(=O)OC(C)C)C3)ncnc1N1CCc2cc(S(C)(=O)=O)ccc21` [Example 23, Isopropyl (9-syn)-9-({5-methyl-6-[5-(methylsulfonyl)-2,3-dihydro-1H-indol-1-yl]pyrimidin-4-yl}oxy)-3-oxa-7-azabicyclo[3.3.1]nonane-7-carboxylate], the EC50 was 64.7 nM.

For orientation: EC50 means the concentration at which the effect is half-maximal.
